# Test results taken from patent US5455044A, “Method for treating neurological disorders” (priority 1993, dated 1995).
# Assay: Effect of concurrent oral dexamethasone administration on DTC 101 toxicity
smiles,measurement,setting,value
C[C@@H]1C[C@H]2[C@@H]3CCC4=CC(=O)C=C[C@]4(C)[C@@]3(F)[C@@H](O)C[C@]2(C)[C@@]1(O)C(=O)CO [dexamethasone],effect on toxicities associated with DTC 101,"oral, 2 to 4 mg twice per day",major effect on blunting toxicities associated with DTC 101
same,DTC 101 toxicity with concurrent oral dexamethasone,"three patients, same dose of DTC 101 with and without dexamethasone",almost completely suppressed
